Assay results taken from US20080171740A1, “Chemical Compounds” (SMITHKLINE BEECHAM CORPORATION, priority 2004, published 2008).
Like-named read-outs stand apart in the source and are kept apart here.

Key:
Format in all cases: cell-based
CXCR4 receptor = target: T1, CXCR4 receptor (Homo sapiens, UniProt P61073); test: Functional FLIPR assay (block of SDF-1 alpha induced [Ca2+]i change); conditions: HEK-293 cells with human CXCR4 BacMam and Gqi5 BacMam; antagonism of SDF-1 alpha; read-out: Functional assay (pIC50) (converted)
T1 construct: expressed in transfected cells; host or cells: HEK-293 cells (stably expressing human macrophage scavenging receptor) transduced with human CXCR4 BacMam and Gqi5 BacMam
Method: Human embryonic kidney (HEK-293) cells were maintained and harvested as described above. Cells were plated in 96-well, black clear bottom, poly-lysine coated plates at a concentration of 40,000 cells per well in a final volume of 100 ul containing human CXCR4 BacMam (MOI=25) and Gqi5 BacMam (MOI=12.5). The cells were incubated at 37° C., 5% CO2, 95% humidity for 24 h to allow for protein expression.
After the required incubation time the cells were washed once with 50 ul of fresh serum-free DMEM/F12 media containing probenicid. 50 ul of dye solution was then added to the cells (Calcium Plus Assay Kit Dye; Molecular Devices) was dissolved in 200 ml of the above probenicid/BSA containing media and incubated for 1 h. Cell plates were transferred to a Fluorometric Imaging Plate Reader (FLIPR). Upon addition the effect of the compounds on the change in [Ca^2+]i was examined to determine if the compounds were agonists or antagonists (ability to block SDF-1 alpha activity) at the CXCR4 receptor. IC50 values are determined and pKb values are calculated using the Leff and Dougall equation: KB=IC50/((2+([agonist]/EC50̂b)̂1/b -1) Where IC50 is that defined by the antagonist concentration-response curve [agonist] is the EC80 concentration of agonist used EC50 is that defined by the agonist concentration-response curve b is the slope of the agonist concentration-response curve.

[1] = system: HIV-1 gp160 (HXB2 strain) mediated fusion with HOS (hCXCR4/hCCR5/hCD4/pHIV-LTR-luciferase) cells; test: Cell/cell fusion assay (HEK-293 expressing HIV-1 tat, rev, gp160 with HOS hCXCR4/hCCR5/hCD4/pHIV-LTR-luciferase cells); conditions: Homo sapiens, HEK293; luciferase readout after 24 h; read-out: Fusion assay (pIC50) (converted)
Description: The complete coding sequences of HIV-1 tat (GenBank Accession No. X07861) and rev (GenBank Accession No. M34378) were cloned into pcDNA3.1 expression vectors containing G418 and hygromycin resistance genes, respectively. The complete coding sequence of the HIV-1 (HXB2 strain) gp160 envelope gene (nucleotide bases 6225-8795 of GenBank Accession No. K03455) was cloned into plasmid pCRII-TOPO. The three HIV genes were additionally inserted into the baculovirus shuttle vector, pFastBacMam1, under the transcriptional control of the CMV promoter. A construction of the pHIV-I LTR containing mutated NFkB sequences linked to the luciferase reporter gene was prepared by digesting pcDNA3.1, containing the G418 resistance gene, with Nru I and Bam HI to remove the CMV promoter. LTR-luc was then cloned into the Nru I/Bam HI sites of the plasmid vector. Plasmid preparations were performed after the plasmids were amplified in Escherichia coli strain DH5-alpha. The fidelity of the inserted sequences was confirmed by double-strand nucleotide sequencing using an ABI Prism Model 377 automated sequencer.
Recombinant BacMam baculoviruses were constructed from pFastBacMam shuttle plasmids by using the bacterial cell-based Bac-to-Bac system. Viruses were propagated in Sf9 (Spodoptera frugiperda) cells cultured in Hink's TNM-FH Insect media supplemented with 10% (v/v) fetal bovine serum and 0.1% (v/v) pluronic F-68 according to established protocols.
Human osteosarcoma (HOS) cells that naturally express human CXCR4 were transfected with human CCR5, human CD4 and the pHIV-LTR-luciferase plasmid using FuGENE 6 transfection reagent. Single cells were isolated and grown under selection condition in order to generate a stable HOS (hCXCR4/hCCR5/hCD4/pHIV-LTR-luciferase) clonal cell line. The cells were maintained in Dulbeccos modified Eagles media supplemented with 10% fetal calf serum (FCS), G418 (400 ug/ml), puromycin (1 ug/ml), mycophenolic acid (40 ug/ml), xanthine (250 ug/ml) and hypoxanthine (13.5 ug/ml) to maintain a selection pressure for cells expressing the LTR-luciferase, hCCR5 and hCD4, respectively. Human embryonic kidney (HEK-293) cells stably transfected to express the human macrophage scavenging receptor (Class A, type 1; GenBank Accession No. D90187), were maintained in DMEM/F-12 media (1:1) supplemented with 10% FCS and 1.5 ug/ml puromycin. The expression of this receptor by the HEK-293 cells enhances their ability to stick to tissue culture treated plasticware.
HEK-293 cells were harvested using enzyme-free cell dissociation buffer. The cells were resuspended in DMEM/F-12 media supplemented with 10% FCS and 1.5 ug/ml and counted. Tranductions were performed by direct addition of BacMam baculovirus containing insect cell media to cells. The cells were simultaneously transduced with BacMam baculovirus expressing HIV-1 tat, HIV-1 rev and HIV-1 gp160 (from the HXB2 HIV strain). Routinely an MOI of 10 of each virus was added to the media containing the cells. 2 mM butyric acid was also added to the cells at this stage to increase protein expression in transduced cells. The cells were subsequently mixed and seeded into a flask at 30 million cells per T225. The cells were incubated at 37° C., 5% CO2, 95% humidity for 24 h to allow for protein expression.
HEK and HOS cells were harvested in DMEM/F-12 media containing 2% FCS and DMEM media containing 2% FCS, respectively, with no selection agents added. Compounds were plated as 1 ul spots in 100% DMSO on a 96-well CulturPlate plates. HOS cells (50 ul) were added first to the wells, followed immediately by the HEK cells (50 ul). The final concentration of each cell type was 20,000 cells per well. Following these additions, the cells were returned to a tissue culture incubator (37° C.; 5% CO2/95% air) for an additional 24 h.
Following the 24 h incubation, total cellular luciferase activity was measured using the LucLite Plus assay kit (Packard, Meridien, Conn.). […]

[2] = Compound cytotoxicity in the absence of virus (CellTiter-Glo); conditions: human; non-infected HOS cultures, cell viability; read-out: Cytotox (pIC50) (converted)
Method: (§1) Compounds were profiled against two HIV-1 viruses, the M-tropic (CCR5 utilizing) Ba-L strain and the T-tropic (CXCR4 utilizing) IIIB strain. Both viruses were propagated in human peripheral blood lymphocytes. Compounds were tested for there ability to block infection of the HOS cell line (expressing hCXCR4/hCCR5/hCD4/pHIV-LTR-luciferase) by either HIV-1 Ba-L or HIV-1 IIIB. Compound cytotoxicity was also examined in the absence of virus addition.
(§2) HOS cells (expressing hCXCR4/hCCR5/hCD4/pHIV-LTR-luciferase) were harvested and diluted in Dulbeccos modified Eagles media supplemented with 2% FCS and non-essential amino acid to a concentration of 60,000 cells/ml. The cells were plated into 96-well plates (100 ul per well) and the plates were placed in a tissue culture incubator (37° C.; 5% CO2/95% air) for a period of 24 h.
(§3) Subsequently, 50 ul of the desired drug solution (4 times the final concentration) was added to each well and the plates were returned to the tissue culture incubator (37° C.; 5% CO2/95% air) for 1 h. Following this incubation 50 ul of diluted virus was added to each well (approximately 2 million RLU per well of virus). The plates were returned to the tissue culture incubator (37° C.; 5% CO2/95% air) and were incubated for a further 96 h.
(§4) Following this incubation the endpoint for the virally infected cultures was quantified following addition of Steady-Glo Luciferase assay system reagent (Promega, Madison, Wis.). Cell viability or non-infected cultures was measured using a CellTiter-Glo luminescent cell viability assay system (Promega, Madison, Wis.). All luminescent readouts are performed on a Topcount luminescence detector (Packard, Meridien, Conn.).

[3] = system: HIV-1 IIIB strain, T-tropic (CXCR4 utilizing); test: HOS HIV-1 infectivity assay
Method: as §1, §2, §3, §4

[4] = Human immunodeficiency virus 1, IIIB, HOS HIV anti-infectivity assay, strain not named in Table 2, read-out: Activity Level
[5] = Human immunodeficiency virus 1, HOS cells, HIV-1 IIIB, 96 h, luciferase, read-out: HOS (3B)

T1 sequence (P61073 whole entry): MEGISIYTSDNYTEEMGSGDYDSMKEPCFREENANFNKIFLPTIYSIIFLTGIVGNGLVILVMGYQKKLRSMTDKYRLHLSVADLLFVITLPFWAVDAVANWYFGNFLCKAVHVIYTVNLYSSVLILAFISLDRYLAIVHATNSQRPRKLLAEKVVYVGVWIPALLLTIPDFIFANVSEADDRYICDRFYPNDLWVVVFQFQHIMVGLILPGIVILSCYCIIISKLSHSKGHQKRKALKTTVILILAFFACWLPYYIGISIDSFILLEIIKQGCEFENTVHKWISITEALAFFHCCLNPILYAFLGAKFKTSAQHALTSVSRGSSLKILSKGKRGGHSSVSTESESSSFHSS

Work on `NCCCCN(Cc1cn2c(N3CCCC3)cccc2n1)C1CCCc2cccnc21` (stereo not shown) [Example 21, N-{[5-(1-Pyrrolidinyl)imidazo[1,2-a]pyridin-2-yl]methyl}-N-(5,6,7,8-tetrahydro-8-quinolinyl)-1,4-butanediamine] yielded an IC50 (CXCR4 receptor) of 20 nM, an IC50 [1] of 102 nM and an IC50 at 96 h [2] greater than 100000 nM. The IC50 ([3]; Human immunodeficiency virus 1, IIIB, HOS, 96 h, read-out: HOS (3B) (μM)) was 0.038 µM and the IC50 ([3]; Human immunodeficiency virus 1, IIIB, read-out: Activity Level) was less than 0.1 µM.

`NCCCCN(Cc1cn2c(N)cccc2n1)C1CCCc2cccnc21` (stereo not shown) [Example 26, N-[(5-Aminoimidazo[1,2-a]pyridin-2-yl)methyl]-N-(5,6,7,8-tetrahydro-8-quinolinyl)-1,4-butanediamine] gave an IC50 (CXCR4 receptor) of 11.5 nM, an IC50 [1] of 39.8 nM and an IC50 at 96 h [2] greater than 100000 nM. It also gave an IC50 [3, 4] of less than 0.1 µM and an IC50 [3, 5] of 0.014 µM.

In the case of `NCCCCN(Cc1cn2ccccc2n1)C1CCCc2cccnc21` (stereo not shown) [Example 1, N-(Imidazo[1,2-a]pyridin-2-ylmethyl)-N-(5,6,7,8-tetrahydro-8-quinolinyl)-1,4-butanediamine], the IC50 (CXCR4 receptor) is reported as 33.9 nM, the IC50 [1] is reported as 79.4 nM and the IC50 at 96 h [2] is reported as greater than 100000 nM. For the same compound, the IC50 [3, 4] was less than 0.1 µM and the IC50 [3, 5] was 0.042 µM.

For `NCCCCN(Cc1cn2cc(C(F)(F)F)ccc2n1)C1CCCc2cccnc21` (stereo not shown) [Example 7, N-(5,6,7,8-Tetrahydro-8-quinolinyl)-N-{[6-(trifluoromethyl)imidazo[1,2-a]pyridin-2-yl]methyl}-1,4-butanediamine], the IC50 (CXCR4 receptor) was 63.1 nM, the IC50 [1] was 191 nM and the IC50 at 96 h [2] was greater than 100000 nM. The IC50 [3, 4] was 0.1 to 0.5 µM and the IC50 [3, 5] was 0.161 µM.

Compound `CN1CCN(c2cccc3nc(CN(CCCCN)C4CCCc5cccnc54)cn23)CC1` (stereo not shown) [Example 24, N-{[5-(4-Methyl-1-piperazinyl)imidazo[1,2-a]pyridin-2-yl]methyl}-N-(5,6,7,8-tetrahydro-8-quinolinyl)-1,4-butanediamine] has an IC50 (CXCR4 receptor) of 41.7 nM, an IC50 [1] of 4.9 nM and an IC50 at 96 h [2] greater than 100000 nM. For the same compound, the IC50 [3, 4] was less than 0.1 µM and the IC50 [3, 5] was 0.0036 µM.

`Cc1cc(Br)c2nc(CN(CCCCN)C3CCCc4cccnc43)cn2c1` (stereo not shown) [Example 20, N-[(8-Bromo-6-methylimidazo[1,2-a]pyridin-2-yl)methyl]-N-(5,6,7,8-tetrahydro-8-quinolinyl)-1,4-butanediamine] gave an IC50 (CXCR4 receptor) of 135 nM, an IC50 [1] of 2290 nM and an IC50 at 96 h [2] greater than 100000 nM. The IC50 [3, 4] was 0.1 to 0.5 µM and the IC50 [3, 5] was 0.31 µM.

In the case of `NCCCCN(Cc1cn2cc(Cl)ccc2n1)C1CCCc2cccnc21` (stereo not shown) [Example 10, N-[(6-Chloroimidazo[1,2-a]pyridin-2-yl)methyl]-N-(5,6,7,8-tetrahydro-8-quinolinyl)-1,4-butanediamine], the IC50 (CXCR4 receptor) is reported as 29.5 nM, the IC50 [1] is reported as 115 nM and the IC50 at 96 h [2] is reported as greater than 100000 nM. For the same compound, the IC50 [3, 4] was less than 0.1 µM and the IC50 [3, 5] was 0.041 µM.

`Cc1ccn2cc(CN(CCCCN)C3CCCc4cccnc43)nc2c1` (stereo not shown) [Example 3, N-[(7-Methylimidazo[1,2-a]pyridin-2-yl)methyl]-N-(5,6,7,8-tetrahydro-8-quinolinyl)-1,4-butanediamine] showed an IC50 (CXCR4 receptor) of 759 nM, an IC50 [1] of 813 nM and an IC50 at 96 h [2] greater than 100000 nM. For the same compound, the IC50 [3, 4] was 0.1 to 0.5 µM and the IC50 [3, 5] was 0.223 µM.

Compound `NCCCCN(Cc1cn2c(Br)cccc2n1)C1CCCc2cccnc21` (stereo not shown) [Example 12, N-[(5-Bromoimidazo[1,2-a]pyridin-2-yl)methyl]-N-(5,6,7,8-tetrahydro-8-quinolinyl)-1,4-butanediamine] has an IC50 (CXCR4 receptor) of 9.77 nM, an IC50 [1] of 28.8 nM and an IC50 at 96 h [2] greater than 100000 nM. For the same compound, the IC50 [3, 4] was less than 0.1 µM and the IC50 [3, 5] was 0.01 µM.

`NCCCCN(Cc1cn2cc(F)ccc2n1)C1CCCc2cccnc21` (stereo not shown) [Example 11, N-[(6-Fluoroimidazo[1,2-a]pyridin-2-yl)methyl]-N-(5,6,7,8-tetrahydro-8-quinolinyl)-1,4-butanediamine] showed an IC50 (CXCR4 receptor) of 17 nM, an IC50 [1] of 63.1 nM and an IC50 at 96 h [2] greater than 100000 nM. It also gave an IC50 [3, 4] of less than 0.1 µM and an IC50 [3, 5] of 0.033 µM.

In the case of `NCCCCN(Cc1cn2c(N3CCNCC3)cccc2n1)C1CCCc2cccnc21` (stereo not shown) [Example 22, N-{[5-(1-piperazinyl)imidazo[1,2-a]pyridin-2-yl]methyl}-N-(5,6,7,8-tetrahydro-8-quinolinyl)-1,4-butanediamine], the IC50 (CXCR4 receptor) is reported as 2.88 nM, the IC50 [1] is reported as 2.82 nM and the IC50 at 96 h [2] is reported as greater than 100000 nM. The IC50 [3, 4] was less than 0.1 µM and the IC50 [3, 5] was 0.0022 µM.
